e = 2'-O-(2-methoxyethyl) (MOE); d = 2'-deoxy (DNA)
Test system: JNK3 mRNA
Experiment: Northern assay of JNK3 mRNA levels in SH-SY5Y cells
Type: cell-based, human
Settings: 200 nM oligonucleotide
Method: Northern Assays: The mRNA expression of each JNK protein was determined by using a nucleic acid probe specifically hybridizable thereto. Nucleic acid probes specific for JNK1, JNK2 and JNK3 are described in Examples 3, 4 and 5, respectively. The probes were radiolabelled by means well known in the art (see, e.g., Short Protocols in Molecular Biology, 2nd Ed., Ausubel et al., Eds., John Wiley & Sons, New York, 1992, pages 3-11 to 2-3-44 and 4-17 to 4-18; Ruth, Chapter 6 In: Methods in Molecular Biology, Vol. 26: Protocols for Oligonucleotide Conjugates, Agrawal, ed., Humana Press Inc., Totowa, N.J., 1994, pages 167-185; and Chapter 10 In: Molecular Cloning: A Laboratory Manual, 2nd Ed., Sambrook et al., Eds., pages 10.1-10.70). The blots were stripped and reprobed with a ^32P-labeled glyceraldehyde 3-phosphate dehydrogenase (G3PDH) probe (Clontech Laboratories, Inc., Palo Alto, Calif.) in order to confirm equal loading of RNA and to allow the levels of JNK transcripts to be normalized with regard to the G3PDH signals.
B. JNK3-specific probes: In initial screenings of a set of oligonucleotides derived from the JNK3 sequence for biological activity, a cDNA clone of JNK3 (Derijard et al., Cell, […], 76, 1025) was radiolabeled and used as a JNK3-specific probe in Northern blots. Alternatively, however, one or more of the oligonucleotides of Table 14 is detectably labeled and used as a JNK3-specific probe.
E. Activities of JNK3 oligonucleotides: The JNK3-specific phosphorothioate, 2′-methoxyethoxy “gapmer” oligonucleotides (Table 14) were screened for their ability to affect JNK3 mRNA levels in SH-SY5Y cells (Biedler et al., Cancer Res., 1973, 33, 2643). SH-SY5Y cells express a variety of mitogen-activated protein kinases (MAPKs; see, e.g., Cheng et al., J. Biol. Chem., 1998, 273, 14560). Cells were grown in DMEM essentially as previously described (e.g., Singleton et al., J. Biol. Chem., 1996, 271, 31791; Jalava et al., Cancer Res., 1990, 50, 3422) and treated with oligonucleotides at a concentration of 200 nM as described in Example 2. Control cultures were treated with an aliquot of LIPOFECTIN™ that contained no oligonucleotide.

Substance	% EXPRESSION [%]	% INHIBITION [%]
16690 (antisense TTCAACAGTTTCTTGCATAA; sugars from the 5' end e6 d8 e6, all phosphorothioate, methylation of C not given here) [compound 16690]	60	40
16691 (antisense CTCATCTATAGGAAACGGGT; sugars from the 5' end e6 d8 e6, all phosphorothioate, methylation of C not given here) [compound 16691]	66	34
16692 (antisense TGGAGGCTCATAAATACCAC; sugars from the 5' end e6 d8 e6, all phosphorothioate, methylation of C not given here) [compound 16692]	47	
16693 (antisense TATAAGAAATGGAGGCTCAT; sugars from the 5' end e6 d8 e6, all phosphorothioate, methylation of C not given here) [compound 16693]	40	
16694 (antisense TCACATCCAATGTTGGTTCA; sugars from the 5' end e6 d8 e6, all phosphorothioate, methylation of C not given here) [compound 16694]	42	
16695 (antisense TTATCGAATCCCTGACAAAA; sugars from the 5' end e6 d8 e6, all phosphorothioate, methylation of C not given here) [compound 16695]	44	
16696 (antisense GTTTGGCAATATATGACACA; sugars from the 5' end e6 d8 e6, all phosphorothioate, methylation of C not given here) [compound 16696]	55	
16697 (antisense CTGTCAAGGACAGCATCATA; sugars from the 5' end e6 d8 e6, all phosphorothioate, methylation of C not given here) [compound 16697]	54	
16698 (antisense AATCACTTGACATAAGTTGG; sugars from the 5' end e6 d8 e6, all phosphorothioate, methylation of C not given here) [compound 16698]	63	37
16699 (antisense TAAATCCCTGTGAATAATTC; sugars from the 5' end e6 d8 e6, all phosphorothioate, methylation of C not given here) [compound 16699]	61	39
16702 (antisense TGTTCTCTTTCATCCAACTG; sugars from the 5' end e6 d8 e6, all phosphorothioate, methylation of C not given here) [compound 16702]	39	
16703 (antisense TCTCACTGCTGTTCACTGCT; sugars from the 5' end e6 d8 e6, all phosphorothioate, methylation of C not given here) [compound 16703]	30	
16704 (antisense GGGTCTGGTCGGTGGACATG; sugars from the 5' end e6 d8 e6, all phosphorothioate, methylation of C not given here) [compound 16704]	36	
16705 (antisense AGGCTGCTGTCAGTGTCAGA; sugars from the 5' end e6 d8 e6, all phosphorothioate, methylation of C not given here) [compound 16705]	42	
16706 (antisense TCACCTGCAACAACCCAGGG; sugars from the 5' end e6 d8 e6, all phosphorothioate, methylation of C not given here) [compound 16706]	45	
16707 (antisense GCGGCTAGTCACCTGCAACA; sugars from the 5' end e6 d8 e6, all phosphorothioate, methylation of C not given here) [compound 16707]	73	27
16708 (antisense CGCTGGGTTTCGCAGGCAGG; sugars from the 5' end e6 d8 e6, all phosphorothioate, methylation of C not given here) [compound 16708]	68	32
16709 (antisense ATCATCTCCTGAAGAACGCT; sugars from the 5' end e6 d8 e6, all phosphorothioate, methylation of C not given here) [compound 16709]	66	34
